The values below come from ChEMBL document CHEMBL1131644, “1-Methoxy-agroclavine from Penicillium sp. WC75209, a novel inhibitor of the Lck tyrosine kinase” (Bioorg Med Chem Lett, 1998).

Active and inactive are the calls of the source. The calls are words filed in the database; no cut-off is given here.

The target in experiment [1] is Receptor tyrosine-protein kinase erbB-2 (Homo sapiens) (UniProt P04626). Put plainly: Inhibition of Her2, ErbB2 receptor tyrosine kinase at 10 uM.
The target of experiment [2] is T1, Tyrosine-protein kinase Lck (Homo sapiens, UniProt P06239). Put plainly: Inhibition of Lck protein kinase at 10 uM.
Target sequence in this assay (P06239 2-509 limits assumed): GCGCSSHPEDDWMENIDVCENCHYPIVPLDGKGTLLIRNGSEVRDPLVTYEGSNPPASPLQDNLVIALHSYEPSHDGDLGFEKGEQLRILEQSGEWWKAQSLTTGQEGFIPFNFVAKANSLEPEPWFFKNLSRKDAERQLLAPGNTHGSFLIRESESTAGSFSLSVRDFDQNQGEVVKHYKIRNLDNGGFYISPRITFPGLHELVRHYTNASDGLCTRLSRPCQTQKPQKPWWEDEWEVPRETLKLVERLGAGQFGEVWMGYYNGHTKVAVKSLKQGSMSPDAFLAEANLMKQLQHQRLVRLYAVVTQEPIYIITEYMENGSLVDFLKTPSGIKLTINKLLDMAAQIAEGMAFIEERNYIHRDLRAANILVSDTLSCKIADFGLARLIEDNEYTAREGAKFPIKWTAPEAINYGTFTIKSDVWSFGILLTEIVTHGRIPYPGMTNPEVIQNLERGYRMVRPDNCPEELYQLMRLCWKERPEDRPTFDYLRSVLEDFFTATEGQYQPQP
In experiment [3] the test system is M109. In words: Cytotoxic effect on M109 mouse lung carcinoma cells at 40 uM (No effect). The class given is functional, cell-based.
Experiment [4] addresses T2, Tyrosine-protein kinase Blk (Homo sapiens, UniProt P51451). Put plainly: (§1) Inhibition of p74 Blk tyrosine kinase autophosphorylation (Inactive).
Target sequence in this assay (P51451 2-505 limits assumed): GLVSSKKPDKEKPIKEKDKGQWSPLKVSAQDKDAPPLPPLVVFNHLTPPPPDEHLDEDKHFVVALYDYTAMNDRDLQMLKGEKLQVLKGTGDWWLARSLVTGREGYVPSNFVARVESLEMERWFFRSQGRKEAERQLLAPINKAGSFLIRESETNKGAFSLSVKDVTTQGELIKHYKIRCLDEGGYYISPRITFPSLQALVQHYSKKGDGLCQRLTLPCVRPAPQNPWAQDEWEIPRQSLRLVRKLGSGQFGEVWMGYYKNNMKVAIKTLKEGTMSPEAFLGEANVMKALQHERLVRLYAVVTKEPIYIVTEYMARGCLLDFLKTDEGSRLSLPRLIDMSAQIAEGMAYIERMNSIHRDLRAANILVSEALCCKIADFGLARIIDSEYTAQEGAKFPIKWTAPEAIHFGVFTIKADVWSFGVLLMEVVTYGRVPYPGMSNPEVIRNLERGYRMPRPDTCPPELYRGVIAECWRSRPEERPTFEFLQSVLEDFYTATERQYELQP
In experiment [5] the target is T1, Tyrosine-protein kinase Lck. Put plainly: Inhibition of p56 lck autophosphorylation, gamma-[33P]ATP incorporation.
Target sequence in this assay (P06239 whole entry): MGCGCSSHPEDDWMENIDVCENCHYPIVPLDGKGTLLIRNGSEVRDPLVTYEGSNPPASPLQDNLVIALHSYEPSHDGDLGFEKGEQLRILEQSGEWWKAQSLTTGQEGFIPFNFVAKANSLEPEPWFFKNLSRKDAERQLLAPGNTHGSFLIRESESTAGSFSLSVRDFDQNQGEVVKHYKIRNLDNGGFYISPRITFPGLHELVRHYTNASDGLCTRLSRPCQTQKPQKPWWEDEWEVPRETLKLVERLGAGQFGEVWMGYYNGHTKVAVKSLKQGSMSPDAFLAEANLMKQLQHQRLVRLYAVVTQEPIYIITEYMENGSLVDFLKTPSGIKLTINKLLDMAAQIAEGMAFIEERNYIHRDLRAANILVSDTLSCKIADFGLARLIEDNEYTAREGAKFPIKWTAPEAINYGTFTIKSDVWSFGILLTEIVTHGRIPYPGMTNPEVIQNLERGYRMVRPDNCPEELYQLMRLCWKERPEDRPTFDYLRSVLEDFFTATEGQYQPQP
The target in experiment [6] is Tyrosine-protein kinase Fyn (Homo sapiens) (UniProt P06241). In words: Inhibition of Fyn protein kinase at 10 uM.
Experiment [7] concerns the target T3, CaM kinase II (Homo sapiens) (UniProt Q13557+Q13555+Q13554+Q9UQM7). Put plainly: (§2) Inhibition of [Ca(2+)]/Calmodulin-dependent Type II protein kinase at 10 uM. The class given is protein assay.
Experiment [8] deals with Epidermal growth factor receptor (Homo sapiens) (UniProt P00533). To be noted: 10 uM.
Description: Inhibition of Epidermal growth factor receptor at 10 uM
Experiment [9] addresses T4, Tyrosine-protein kinase SYK (Homo sapiens, UniProt P43405). Put plainly: Inhibition of p72 syk autophosphorylation.
Experiment [10] addresses Protein kinase C alpha type (Homo sapiens) (UniProt P17252). Put plainly: Inhibition of Protein kinase C alpha at 10 uM Histone H1 substrate.
In experiment [11] the target is T3, CaM kinase II (Homo sapiens). The experiment is described as §2. The class given is protein assay. This is another data set of the same source.
Experiment [12] can be described thus: Inhibition of cAMP-dependent protein kinase at 10 uM Histone H1 substrate.
For experiment [13], the target named is Protein kinase C gamma type (Homo sapiens) (UniProt P05129). In words: Inhibition of Protein Kinase C gamma at 10 uM Histone H1 substrate.
The target of experiment [14] is Protein kinase C beta type (Homo sapiens) (UniProt P05771). Put plainly: Inhibition of Protein Kinase C beta at 10 uM Histone H1 substrate (Inactive).
Experiment [15] concerns the target T2, Tyrosine-protein kinase Blk. The description is as §1. This is another data set of the same source.
For experiment [16], the target named is T1, Tyrosine-protein kinase Lck. Put plainly: Inhibition of p56 lck autophosphorylation, gamma-[33P]ATP incorporation (Inactive).
Target sequence in this assay (P06239 whole entry): as above
For experiment [17], the target named is T4, Tyrosine-protein kinase SYK. Put plainly: Inhibition of p72 syk autophosphorylation (Inactive).

Sequence of Protein kinase C beta type (Homo sapiens) (P05771 2-671 limits assumed): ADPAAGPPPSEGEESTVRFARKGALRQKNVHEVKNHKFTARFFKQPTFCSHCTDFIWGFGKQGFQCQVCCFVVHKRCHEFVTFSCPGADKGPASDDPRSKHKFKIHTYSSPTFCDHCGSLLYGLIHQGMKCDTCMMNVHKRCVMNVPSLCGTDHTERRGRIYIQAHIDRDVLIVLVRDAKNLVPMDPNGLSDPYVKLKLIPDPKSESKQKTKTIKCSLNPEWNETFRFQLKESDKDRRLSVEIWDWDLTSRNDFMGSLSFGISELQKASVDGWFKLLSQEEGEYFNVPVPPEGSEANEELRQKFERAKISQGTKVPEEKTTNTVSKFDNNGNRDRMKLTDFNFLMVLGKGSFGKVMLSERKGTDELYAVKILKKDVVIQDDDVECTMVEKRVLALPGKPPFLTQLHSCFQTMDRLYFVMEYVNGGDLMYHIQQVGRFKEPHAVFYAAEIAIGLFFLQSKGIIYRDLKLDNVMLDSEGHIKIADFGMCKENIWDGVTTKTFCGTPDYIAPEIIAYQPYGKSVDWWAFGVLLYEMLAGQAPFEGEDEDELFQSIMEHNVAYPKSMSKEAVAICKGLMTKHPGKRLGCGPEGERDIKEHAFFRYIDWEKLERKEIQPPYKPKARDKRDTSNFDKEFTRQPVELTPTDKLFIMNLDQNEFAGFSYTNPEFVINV
Sequence of Receptor tyrosine-protein kinase erbB-2 (Homo sapiens) (P04626 whole entry): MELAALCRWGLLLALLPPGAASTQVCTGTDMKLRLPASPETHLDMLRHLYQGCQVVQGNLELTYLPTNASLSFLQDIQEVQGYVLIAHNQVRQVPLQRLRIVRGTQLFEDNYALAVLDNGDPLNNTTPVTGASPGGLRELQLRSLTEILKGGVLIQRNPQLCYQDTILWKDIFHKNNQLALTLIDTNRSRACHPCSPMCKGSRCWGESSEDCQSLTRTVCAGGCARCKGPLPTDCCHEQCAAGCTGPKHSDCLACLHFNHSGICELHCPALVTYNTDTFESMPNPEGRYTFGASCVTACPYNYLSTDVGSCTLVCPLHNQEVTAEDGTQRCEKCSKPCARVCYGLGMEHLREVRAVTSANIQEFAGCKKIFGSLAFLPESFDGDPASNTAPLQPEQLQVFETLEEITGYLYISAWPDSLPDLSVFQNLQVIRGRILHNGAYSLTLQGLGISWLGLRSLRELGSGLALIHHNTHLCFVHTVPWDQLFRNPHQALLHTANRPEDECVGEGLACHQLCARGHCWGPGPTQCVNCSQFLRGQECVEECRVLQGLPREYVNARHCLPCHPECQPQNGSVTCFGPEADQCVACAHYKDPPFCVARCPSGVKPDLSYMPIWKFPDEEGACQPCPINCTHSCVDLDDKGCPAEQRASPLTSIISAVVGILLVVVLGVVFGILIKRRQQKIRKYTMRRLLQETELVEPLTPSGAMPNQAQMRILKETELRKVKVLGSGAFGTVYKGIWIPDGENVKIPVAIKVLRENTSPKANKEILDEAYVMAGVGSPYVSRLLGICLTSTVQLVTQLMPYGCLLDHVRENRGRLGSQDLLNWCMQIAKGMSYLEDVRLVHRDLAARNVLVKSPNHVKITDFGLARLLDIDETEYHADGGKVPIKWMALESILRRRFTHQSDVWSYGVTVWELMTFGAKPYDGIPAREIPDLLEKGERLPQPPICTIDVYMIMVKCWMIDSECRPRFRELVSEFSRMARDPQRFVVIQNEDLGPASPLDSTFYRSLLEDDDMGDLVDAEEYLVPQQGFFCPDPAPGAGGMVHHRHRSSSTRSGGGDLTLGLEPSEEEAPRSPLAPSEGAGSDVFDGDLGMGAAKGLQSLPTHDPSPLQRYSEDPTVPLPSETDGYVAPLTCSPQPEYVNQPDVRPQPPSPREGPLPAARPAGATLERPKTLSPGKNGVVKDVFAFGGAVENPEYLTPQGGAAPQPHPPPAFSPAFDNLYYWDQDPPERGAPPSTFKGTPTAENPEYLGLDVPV
Sequence of Epidermal growth factor receptor (Homo sapiens) (P00533 whole entry): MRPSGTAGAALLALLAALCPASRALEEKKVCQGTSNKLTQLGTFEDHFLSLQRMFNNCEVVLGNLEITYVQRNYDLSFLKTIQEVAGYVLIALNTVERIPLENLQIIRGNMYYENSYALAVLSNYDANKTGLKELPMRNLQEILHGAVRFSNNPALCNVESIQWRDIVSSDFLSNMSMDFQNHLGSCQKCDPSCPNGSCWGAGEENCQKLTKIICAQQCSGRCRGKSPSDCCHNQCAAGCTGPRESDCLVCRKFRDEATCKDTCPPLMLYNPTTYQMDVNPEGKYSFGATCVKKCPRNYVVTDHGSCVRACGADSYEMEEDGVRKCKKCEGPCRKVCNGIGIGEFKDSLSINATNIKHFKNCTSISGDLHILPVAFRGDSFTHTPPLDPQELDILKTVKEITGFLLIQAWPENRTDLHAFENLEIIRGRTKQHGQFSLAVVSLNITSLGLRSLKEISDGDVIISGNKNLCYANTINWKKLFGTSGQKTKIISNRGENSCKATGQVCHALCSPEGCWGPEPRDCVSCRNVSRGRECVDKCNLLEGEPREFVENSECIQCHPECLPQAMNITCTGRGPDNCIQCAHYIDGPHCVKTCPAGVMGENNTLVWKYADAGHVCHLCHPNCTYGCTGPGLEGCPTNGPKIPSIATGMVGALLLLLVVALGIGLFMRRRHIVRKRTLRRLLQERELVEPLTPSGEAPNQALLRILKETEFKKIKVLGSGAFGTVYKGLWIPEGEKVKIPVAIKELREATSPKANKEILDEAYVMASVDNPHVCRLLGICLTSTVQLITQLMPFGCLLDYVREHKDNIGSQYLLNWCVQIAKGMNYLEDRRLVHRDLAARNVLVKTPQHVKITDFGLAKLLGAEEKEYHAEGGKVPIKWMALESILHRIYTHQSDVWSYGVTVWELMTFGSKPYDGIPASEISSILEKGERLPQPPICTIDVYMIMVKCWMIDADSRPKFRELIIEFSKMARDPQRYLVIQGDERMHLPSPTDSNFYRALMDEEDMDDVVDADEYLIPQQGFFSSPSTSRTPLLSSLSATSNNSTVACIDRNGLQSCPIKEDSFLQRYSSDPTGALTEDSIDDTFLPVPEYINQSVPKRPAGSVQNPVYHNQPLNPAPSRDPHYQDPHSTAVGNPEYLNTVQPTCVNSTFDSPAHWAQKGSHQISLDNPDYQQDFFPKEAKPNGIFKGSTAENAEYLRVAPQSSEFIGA

By inhibition is commonly meant how much of the control response was suppressed. What is called IC50 is the concentration at which inhibition is half-maximal. Higher therefore signals a need for much substance. `COn1cc2c3c(cccc31)[C@@H]1C=C(C)CN(C)[C@@H]1C2`: the inhibition was 9% in experiment [1], 42% in experiment [2], 19% in experiment [6] and 14% in experiment [8]. For the same compound, in [3], the Cytotoxicity entry is “inactive”. Also, the inhibition result in [4], in experiment [7], in [10], in experiment [11], in [12] and in [13] was “inactive” in each case. In experiment [14], the inhibition result was “inactive”. For the same compound, the figures for the concentration for half-maximal inhibition (IC50) in experiment [5] and in [9] were 8.5 µM and 285 µM, respectively.

For the compound `CC1=C[C@@H]2c3cccc4[nH]cc(c34)C[C@H]2N(C)C1` [AGROCLAVINE], the IC50 result in experiment [15], in [16] and in [17] was “Not Active” throughout.

Consider `CN1C[C@H](CO)C=C2c3cccc4[nH]cc(c34)C[C@H]21`, for which the IC50 result in experiment [16] is given as “Not Active”.
